How the values were obtained:
NMDA receptor = details: uncompetitive antagonist; cited from earlier work
[1] = system: pediatric patients diagnosed with ADHD combined type; experiment: Open-label ADHD study: overall efficacy, tolerability and patient disposition; format: in vivo, human
Description: (§1) The primary objective of this study was to provide preliminary safety and tolerability evaluations of memantine in pediatric patients with ADHD combined type. The secondary objectives of the study were to evaluate the pharmacokinetics of memantine in this patient population, and to provide preliminary evaluations of efficacy on effect based on a 8-week administration of memantine.
(§2) Design. This clinical trial was conducted as an open-label, single center, dose-finding outpatient study assessing memantine in pediatric patients diagnosed with ADHD combined type (DSM-IV-TR™ criteria). ADHD combined type is characterized by the presence of significant inattentive and hyperactive/impulsive symptomotology.
(§3) Dosages. Sixteen (16) outpatients with a diagnosis of ADHD combined type received treatment with memantine for a total of 8 weeks. Patients were enrolled in to two groups of 8 patients each, Cohort 1 and Cohort 2. Dose adjustments were permitted for patients experiencing dose-limiting adverse events. For Cohort 1 patients, treatment consisted of a 4 week titration period from a starting dose of 2.4 mg/day at the start of week 0, to 4.8 mg/day at the start of week 1, to 7.2 mg/day at the start of Week 2 to a maximum dose of 10 mg/day at the start of week 3, with a maintenance dose of 10 mg/day continuing to the end of Week 8. For Cohort 2 patients, treatment consisted of a 4-week titration period from a starting dose of 4.8 mg/day at the start of Week 0, to 10 mg/day at the start of Week 1, to 14.8 mg/day at the start of Week 2, to a maximum dose of 20 mg/day at the start of Week 3, with a maintenance dose of 20 mg/day continuing to the end of Week 8.
(§4) Patients who missed 2 consecutive visits were discontinued from the study. […] The “Safety Population” consisted of all patients who took at least one dose of study medication. The “Intent-to-Treat (ITT) Population” consisted of all patients in the safety population with at least one post baseline efficacy assessment of ADHD-IV-RS or CGI-ADHD-S. ADHD-IV-RS or CGI-ADHD-S were administered 4 times per patient, once at Screening, once at baseline, once at the end of Week 4 and once at the end of Week 8. […] Those patients unable to tolerate the minimum daily dose after the Week 1 of dosing were discontinued from the study without replacement.
Adverse events. Adverse event (AE) monitoring was performed at all study visits except Screening, including early termination. An AE is any untoward medical occurrence in a patient or clinical investigation subject administered a pharmaceutical product. It is not necessary that the AE have a causal relationship to treatment with the product.
An AE therefore is any unfavorable and unintended sign (for example, a clinically significant abnormal laboratory finding) symptom, or disease temporally associated with the use of study medication, whether or not considered related to study medication. […] An AE occurring during the open-label treatment period is counted as a treatment-emergent AE (TEAE) if it is not present prior to the first dose of study medication or if it is present prior to the first dose of study medication but increases in severity following the first dose of study medication.
The number (percentage) of patients with TEAEs were tabulated by body system and preferred term. Within a specific category (i.e., a specific body system or preferred term), the patient was counted only once if the patient had more than one event reported. […]

[2] = cited from earlier work
[3] = system: cytochrome P-450 (CYP 450) isoenzymes; details: in vitro; cited from earlier work
[4] = system: pediatric patients diagnosed with ADHD combined type; experiment: Open-label study of memantine in pediatric ADHD combined type: CGI-ADHD-S; format: in vivo, human; details: Cohort 2, OC analysis, patients who completed the evaluation, end of 8 weeks; 100% moderately or markedly ill at baseline
Description: The Clinical Global Impression-ADHD-Severity (CGI-S) is a 7-point scale (1 [not ill] to 7 [extremely ill]) to be assessed by the Investigator at Screening (part 1.1), Baseline, and from two to eight times during Visits 3 to 10, or upon study discontinuation.
as §2
(§5) Patient Population. The study enrolled sixteen (16) male or female outpatients between the ages of 6 and 12 years, mean age of 8 years, diagnosed with ADHD combined type by DSM-IV-TR™ criteria based on clinical evaluation and a semi-structured interview, the Schedule for Affective Disorders and Schizophrenia for School-Age Pediatric patients-Present and Lifetime (K-SADS-PL).
Dosages. Sixteen (16) outpatients with a diagnosis of ADHD combined type received treatment with memantine for a total of 8 weeks. Patients were enrolled in to two groups of 8 patients each, Cohort 1 and Cohort 2. Dose adjustments were permitted for patients experiencing dose-limiting adverse events. […]

[5] = aqueous media; cited from earlier work
[6] = system: patients with neurodegenerative disorders; details: cited from earlier work
[7] = system: patients with moderate to severe dementia of the Alzheimer's type; details: cited from earlier work
[8] = system: pediatric patients diagnosed with ADHD combined type; experiment: Open-label study of memantine in pediatric ADHD combined type: ADHD-IV-RS; format: in vivo, human; details: for ADHD-IV-RS change from baseline, Week 4 (mean) / ADHD-IV-RS change from baseline, Week 8 (mean ± SD) / ADHD-IV-RS score, Week 4 (mean ± SD) / ADHD-IV-RS score, Week 8 (mean ± SD) / ADHD-IV-RS change from baseline, Week 4 (mean ± SD): ITT population
From the text: The Attention Deficit/Hyperactivity Disorder Rating Scale, Fourth Edition-Parent Version (ADHD-IV-RS) assesses each of the 18 individual criteria symptoms of ADHD in DSM-IV-TR™ on a severity grid (0=not present, 3=severe; overall minimum score=0, maximum score=54) (DuPaul et al., ADHD Rating Scale-IV: Checklists, Norms, and Clinical Interpretations 1998. New York: The Guilford Press). Inattention symptoms comprise the odd-numbered items, and hyperactive-impulsive symptoms are represented by the even-numbered items. The scale takes approximately 10 to 15 minutes to complete. […] It is to be completed by the patient's parent or legal guardian at Screening (part 1.1), Baseline, and from two to eight times during Visits 3 to 10, or upon study discontinuation.
as §1, §2, §5, §3, §4
Efficacy parameters used for evaluation were the ADHD-IV-RS, CGI-ADHD-S, CCPT-II, Woodcock Johnson III reading and math fluency tests, and the Stroop test, described above.
The primary analysis for each efficacy parameter was based on observed cases. Only patients completing the evaluation were included in the OC analysis, missing data were not imputed. A last observation carried forward (LOCF) analysis was also performed for each efficacy assessment. […]

autism = details: in vivo; cited from earlier work
[9] = system: autistic spectrum disorders; details: in vivo; cited from earlier work
[10] = system: hyperkinetic children, children with attention deficit disorder (ADD); details: in vivo; cited from earlier work
autistic children = details: small double-blind, placebo-controlled study; cited from earlier work
[11] = Cohort 1 (up to 10 mg/day), LOCF
[12] = Cohort 2 (up to 20 mg/day), LOCF

CC12CC3CC(C)(C1)CC(N)(C3)C2.Cl [memantine, 1-amino-3,5-dimethyladamantane hydrochloride]
Affinity for the NMDA receptor (NMDA receptor): low to moderate
Tolerability in patients with ADHD ([1]; 8-week open-label treatment, up to 10 or 20 mg/day): well tolerated
Patients discontinued for insufficient therapeutic efficacy ([1]; Cohort 1, 8 patients, all discontinued prior to week 8): 7
Behavior and symptomology of combined type ADHD (in words) ([1]; Cohort 2 (up to 20 mg/day)): demonstrated improvements
Patients discontinued for insufficient therapeutic efficacy ([1]; Cohort 2, 8 patients, 4 completed the study): 3
Efficacy after 8 weeks of treatment (in words) ([1]; the 25% of patients completing the study): improvement in two efficacy parameters was observed
Bioavailability after an oral dose ([2]; adult humans, oral): 100%
CSF/serum ratio ([2]; adult humans): 0.52
Metabolism ([2]; adult humans): minimal
Effect of food, sex or age on pharmacokinetic profile ([2]; in vivo): not affected
Inhibition of CYP 450 isoenzymes [3]: does not inhibit
CGI-ADHD-S: patients considered borderline or markedly ill [4]: 75%
Solubility [5]: highly soluble
Safety and tolerability profile ([6]; 2297 patients in 27 clinical trials): acceptable
Most common adverse events ([6]; clinical trials, relatively rare): dizziness, headache, constipation, and confusion
Cognitive, functional and global assessments ([7]; 2 US studies, outpatients ages 50-93, moderate to severe Alzheimer's dementia): significant improvement
Care dependency and global change relative to placebo ([7]; study 9403, Latvian nursing home patients, Alzheimer's disease or vascular dementia (MMSE<10)): significant improvement
ADHD-IV-RS change from baseline, Week 4 (mean) [8, 11]: −3.3
ADHD-IV-RS change from baseline, Week 8 (mean ± SD) [8, 11]: −3.8 ± 2.31
ADHD-IV-RS score, Week 4 (mean ± SD) [8, 11]: 42.8 ± 8.33
ADHD-IV-RS score, Week 8 (mean ± SD) [8, 11]: 40.9 ± 8.53
ADHD-IV-RS change from baseline, Week 4 (mean ± SD) ([8]; Cohort 1 (up to 10 mg/day), OC): −3.5 ± 2.38
ADHD-IV-RS score, Week 4 (mean ± SD) ([8]; Cohort 1 (up to 10 mg/day), OC): 42.8 ± 8.33
ADHD-IV-RS change from baseline, Week 4 (mean) [8, 12]: −10.9
ADHD-IV-RS change from baseline, Week 8 (mean ± SD) [8, 12]: −9 ± 10.00
ADHD-IV-RS score, Week 4 (mean ± SD) [8, 12]: 31.3 ± 13.05
ADHD-IV-RS score, Week 8 (mean ± SD) [8, 12]: 32.9 ± 12.76
ADHD-IV-RS change from baseline, Week 4 (mean ± SD) ([8]; Cohort 2 (up to 20 mg/day), OC): −11. ± 59.65
ADHD-IV-RS change from baseline, Week 8 (mean ± SD) ([8]; Cohort 2 (up to 20 mg/day), OC): −16.5 ± 8.19
ADHD-IV-RS score, Week 4 (mean ± SD) ([8]; Cohort 2 (up to 20 mg/day), OC): 29.5 ± 13.32
ADHD-IV-RS score, Week 8 (mean ± SD) ([8]; Cohort 2 (up to 20 mg/day), OC): 22.3 ± 8.66
Effect on ADHD-IV-RS (in words) ([8]; Cohort 2, end of 8 weeks, OC analysis): showed improvement

secretin: a synthetic form of the natural human hormone secretin developed by RepliGen for the potential treatment of autism
Autistic behavior compared to placebo (autism): did not demonstrate significant improvement

Cc1nc2n(c(=O)c1CCN1CCC(c3noc4cc(F)ccc34)CC1)CCCC2 [risperidone]
Adverse effects associated with treatment [9]: weight gain, increased appetite, fatigue, drowsiness, tremor and drooling

NC12CC3CC(CC(C3)C1)C2 [amantadine, 1-aminoadamantane]
Effects in hyperkinetic children and children with ADD [10]: favorable effects
Measures of hyperactivity and irritability (autistic children): statistically significant improvement

Reference: US20100081723A1, “Memantine For The Treatment Of Childhood Behavioral Disorders” (priority 2004, published 2010)
